Test results: US20260125371A1, “METHOD FOR INHIBITING CLOSTRIDIOIDES DIFFICILE SPORE GERMINATION” (UNIVERSITY OF NOTRE DAME DU LAC, priority 2022, published 2026)
≈ marks a conversion by molar mass, not a printed value.

System: C. difficile strains
Assay: MIC (microdilution) against panel of 101 C. difficile strains
Type: cell-based, Clostridioides difficile
Details: for MIC: Clostridioides difficile
[1] = C. difficile strains of Table 4

O=[N+]([O-])c1cnc(-c2nc(-c3ccc(OC4CCCC4)cc3)no2)[nH]1 [Compound 57, 3-(4-(Cyclopentyloxy)phenyl)-5-(4-nitro-1H-imidazol-2-yl)-1,2,4-oxadiazole]
IMIC50 (101 strains) (101 C. difficile strains): 0.5 µg/mL | MIC50 [1]: 0.5 µg/mL (≈ 1.46 µM) | MIC90 [1]: 1 µg/mL (≈ 2.93 µM) | MIC (ATCC43598, strain ATCC43598): 0.5 µg/mL (≈ 1.46 µM) | MIC (BAA1801, strain BAA-1801): 0.25 µg/mL (≈ 0.732 µM) | MIC (BAA1804, strain BAA-1804): 0.125 µg/mL (≈ 0.366 µM) | MIC (BAA1812, strain BAA-1812): 0.125 µg/mL (≈ 0.366 µM) | MIC (BAA1814, strain BAA-1814): 0.125 µg/mL (≈ 0.366 µM) | MIC (BAA1870, strain BAA-1870): 0.125 µg/mL (≈ 0.366 µM) | MIC (C. difficile 24531, resistant to VAN): 0.125 µg/mL (≈ 0.366 µM) | MIC (C. difficile NR49292): 0.125 µg/mL (≈ 0.366 µM) | MIC (C. difficile NR49302): 0.25 µg/mL (≈ 0.732 µM) | MIC (C. difficile NR49305): 0.125 µg/mL (≈ 0.366 µM) | MIC (C. difficile NR49310): 0.25 µg/mL (≈ 0.732 µM) | MIC (strain HM-88): 1 µg/mL (≈ 2.93 µM) | MIC (strain HM-89): 0.5 µg/mL (≈ 1.46 µM) | MIC (strain HM-745): 0.5 µg/mL (≈ 1.46 µM) | MIC (strain HM-746): 0.5 µg/mL (≈ 1.46 µM) | MIC (strain HM-747): 0.25 µg/mL (≈ 0.732 µM) | MIC (strain NR49292): 0.125 µg/mL (≈ 0.366 µM) | MIC (strain NR49294): 0.5 µg/mL (≈ 1.46 µM) | MIC (strain NR49302): 0.25 µg/mL (≈ 0.732 µM) | MIC (strain NR49305): 0.125 µg/mL (≈ 0.366 µM) | MIC (strain NR49310): 0.25 µg/mL (≈ 0.732 µM) | MIC (strain NR49318): 0.5 µg/mL (≈ 1.46 µM) | MIC (strain NR-13427): 0.5 µg/mL (≈ 1.46 µM) | MIC (strain NR-13428): 0.5 µg/mL (≈ 1.46 µM) | MIC (strain NR-13429): 0.5 µg/mL (≈ 1.46 µM) | MIC (strain NR-13430): 0.5 µg/mL (≈ 1.46 µM) | MIC (strain NR-13431): 0.5 µg/mL (≈ 1.46 µM) | MIC (strain NR-13433): 1 µg/mL (≈ 2.93 µM) | MIC (strain NR-13434): 0.125 µg/mL (≈ 0.366 µM) | MIC (strain NR-13435): 0.5 µg/mL (≈ 1.46 µM) | MIC (strain NR-13436): 0.5 µg/mL (≈ 1.46 µM) | MIC (strain NR-13437): 0.5 µg/mL (≈ 1.46 µM) | MIC (strain NR-13438): 0.25 µg/mL (≈ 0.732 µM) | MIC (strain NR-13553): 0.125 µg/mL (≈ 0.366 µM) | MIC (strain NR-32882): 0.5 µg/mL (≈ 1.46 µM) | MIC (strain NR-32883): 0.5 µg/mL (≈ 1.46 µM) | MIC (strain NR-32884): 0.5 µg/mL (≈ 1.46 µM) | MIC (strain NR-32885): 0.5 µg/mL (≈ 1.46 µM) | MIC (strain NR-32886): 0.5 µg/mL (≈ 1.46 µM) | MIC (strain NR-32887): 1 µg/mL (≈ 2.93 µM) | MIC (strain NR-32888): 1 µg/mL (≈ 2.93 µM) | MIC (strain NR-32889): 1 µg/mL (≈ 2.93 µM) | MIC (strain NR-32890): 0.125 µg/mL (≈ 0.366 µM) | MIC (strain NR-32891): 0.5 µg/mL (≈ 1.46 µM) | MIC (strain NR-32892): 0.25 µg/mL (≈ 0.732 µM) | MIC (strain NR-32895): 0.25 µg/mL (≈ 0.732 µM) | MIC (strain NR-32896): 0.25 µg/mL (≈ 0.732 µM) | MIC (strain NR-32897): 0.25 µg/mL (≈ 0.732 µM) | MIC (strain NR-32900): 0.25 µg/mL (≈ 0.732 µM) | MIC (strain NR-32903): 0.25 µg/mL (≈ 0.732 µM) | MIC (strain NR-32904): 0.125 µg/mL (≈ 0.366 µM) | MIC (strain NR-49277): 0.5 µg/mL (≈ 1.46 µM) | MIC (strain NR-49278): 0.5 µg/mL (≈ 1.46 µM) | MIC (strain NR-49279): 0.5 µg/mL (≈ 1.46 µM) | MIC (strain NR-49280): 0.25 µg/mL (≈ 0.732 µM) | MIC (strain NR-49281): 0.25 µg/mL (≈ 0.732 µM) | MIC (strain NR-49282): 0.5 µg/mL (≈ 1.46 µM)
